Reference: US20190364896A1, “SYNERGISTIC WEED CONTROL FROM APPLICATIONS OF PYRIDINE CARBOXYLIC ACID HERBICIDES AND ALS INHIBITORS” (Dow AgroSciences LLC, priority 2014, published 2019)

Columns and labels:
[1] = tested on: thistle (Cirsium arvense, CIRAR); assay: Postemergence herbicidal activity, greenhouse trial (visual injury 0-100%); format: in vivo
Method: (§1) Seeds of the desired test plant species were planted in Sun Gro MetroMix® 306 planting mixture, which typically has a pH of 6.0 to 6.8 and an organic matter content of about 30 percent, in plastic pots with a surface area of 103.2 square centimeters (cm^2). […] The plants were grown for 7-36 days (d) in a greenhouse with an approximate 14-hour (h) photoperiod which was maintained at about 23° C. during the day and 22° C. during the night. Nutrients and water were added on a regular basis and supplemental lighting was provided with overhead metal halide 1000-Watt lamps as necessary. The plants were employed for testing when they reached the second or third true leaf stage.
(§2) Weighed amounts of technical or formulated material (emulsifiable concentrate (EC) or soluble concentrate (SL)) were dissolved in a volume of 97:3 volume per volume (v/v) acetone/dimethyl sulfoxide (DMSO) to stock solutions. […] The concentrated stock solutions were diluted with an aqueous mixture of 1.5% v/v of Agri-dex crop oil concentrate to provide the appropriate application rates. Compound requirements are based upon a 12 milliliter (mL) application volume at a rate of 187 liters per hectare (L/ha). Spray solutions of the experimental compound mixtures were prepared by adding the stock solutions to the appropriate amount of dilution solution to form a 12 mL spray solution in two-way combinations. Formulated compounds were applied to the plant material with an overhead Mandel track sprayer equipped with 8002E nozzles calibrated to deliver 187 L/ha over an application area of 0.503 square meters (m^2) at a spray height of 18 inches (43 centimeters (cm)) above average plant canopy. Control plants were sprayed in the same manner with the solvent blank. Application rates for component (a) are in g ae/ha, and application rates for component (b) are in g ai/ha.
(§3) The treated plants and control plants were placed in a greenhouse as described above and watered by sub-irrigation to prevent wash-off of the test compounds. After 20-22 d, the condition of the test plants as compared with that of the control plants was determined visually and scored on a scale of 0 to 100 percent where 0 corresponds to no injury and 100 corresponds to complete kill. Colby's equation was used to determine the herbicidal effects expected from the mixtures. […]
(§4) Weighed amounts of technical material were dissolved in a volume of 97:3 volume per volume (v/v) acetone/dimethyl sulfoxide (DMSO) to stock solutions. […] The concentrated stock solutions were diluted with an aqueous mixture of 1.5% v/v of Agri-dex crop oil concentrate to provide the appropriate application rates. Compound requirements are based upon a 12 milliliter (mL) application volume at a rate of 187 liters per hectare (L/ha).

[2] = tested on: common rice (Oryza sativa, ORYSA); assay: Postemergence crop injury (phytotoxicity), greenhouse trial (visual injury 0-100%)
Method: as §1, §2
(§5) The treated plants and control plants were placed in a greenhouse as described above and watered by sub-irrigation to prevent wash-off of the test compounds. After 20-22 d, the condition of the test plants as compared with that of the control plants was determined visually and scored on a scale of 0 to 100 percent where 0 corresponds to no injury and 100 corresponds to complete kill. The condition of the test plants was compared with that of the control plants as determined visually and scored on a scale of 0 to 100 percent, where 0 corresponds to no injury and 100 corresponds to complete kill. Colby's equation was used to determine the herbicidal effects expected from the mixtures.
(§6) Compound 1 was formulated as an EC and was combined with florasulam, cloransulam, diclosulam, flumetsulam, penoxsulam, or pyroxsulam. Compound 2 was formulated as an EC and was combined with florasulam or pyroxsulam. The mixtures were applied to winter wheat (TRZAW), common rice (ORYSA), maize (ZEAMX), and the phytotoxicity of the herbicidal compositions was measured. In addition, the efficacy of the herbicidal compositions on blackgrass (Alopecurus myosuroides, ALOMY), pigweed (Amaranthus retrollexus, AMARE), wild oat (Avena fatua, AVEFA), common lambsquarters (Chenopodium album L., CHEAL), thistle (Cirsium arvense CIRAR), nutsedge (Cyperus esculentus, CYPES), barnyardgrass (Echinochloa crus-galli, ECHCG), poinsettia (Euphorbia heterophylla, EPHHL), ivyleaf morning-glory (Ipomoea hederacea, IPOHE), kochia (Kochia scoparia, KCHSC), wild buckwheat (Polygonum convolvulus, POLCO), grain sorghum (Sorghum vulgare, SORVU), chickweed (Stellaria media, STEME), wild pansy (Viola tricolor, VIOTR), was evaluated.
as §4, with “(L/ha). […]” for “(L/ha).”

[3] = tested on: wild pansy (Viola tricolor, VIOTR); assay: Postemergence herbicidal activity, greenhouse trial (visual injury 0-100%); format: in vivo
Method: as §1, §2, §5
as §6, with “Compound 1 was formulated as an EC and was combined with florasulam, cloransulam, diclosulam, flumetsulam, penoxsulam, or pyroxsulam.” left out
as §4

[4] = tested on: nutsedge (Cyperus esculentus, CYPES); assay: as above; format: in vivo; conditions: CYPES
Method: as §1
as §2, with “technical” for “technical or formulated”, “material” for “material (emulsifiable concentrate (EC) or soluble concentrate (SL))”
as §3, §2

[5] = tested on: kochia (Kochia scoparia, KCHSC); assay: as above; format: in vivo
Method: as §1, §2, §3, §4

[6] = tested on: barnyardgrass (Echinochloa crus-galli, ECHCG); assay: as above; format: in vivo
Method: as §1, §2, §5, §6
as §4, with “(L/ha). […]” for “(L/ha).”

[7] = tested on: common lambsquarters (Chenopodium album L., CHEAL); assay: as above; format: in vivo; conditions: Chenopodium album, post-emergence, CHEAL; chlorsulfuron 2.2 g ai/ha; read-out: % visual injury Obs
Method: as §1, §2, §5, §6
as §4, with “(L/ha). […]” for “(L/ha).”

[8] = tested on: spring rape (Brassica napus, BRSNN); assay: as above; format: in vivo; conditions: BRSNN; chlorsulfuron 2.2 g ai/ha
[9] = tested on: ivyleaf morning-glory (Ipomoea hederacea, IPOHE); assay: as above; format: in vivo
Method: as §1, §2, §5, §6
as §4, with “(L/ha). […]” for “(L/ha).”

[10] = tested on: wild oat (Avena fatua, AVEFA); assay: as above; format: in vivo; conditions: 35 g ai/ha
Method: as §1, §2, §5, §6
as §4, with “(L/ha). […]” for “(L/ha).”

[11] = tested on: giant foxtail (Setaria faberi, SETFA); assay: as above; format: in vivo
[12] = tested on: blackgrass (Alopecurus myosuroides, ALOMY); assay: as above; format: in vivo; conditions: 280 g ai/ha
Method: as §1, §2, §5, §6
as §4, with “(L/ha). […]” for “(L/ha).”

[13] = tested on: large crabgrass (Digitaria sanguinalis, DIGSA); assay: as above; format: in vivo
[14] = tested on: chickweed (Stellaria media, STEME); assay: as above; format: in vivo
Method: as §1, §2, §5, §6
as §4, with “(L/ha). […]” for “(L/ha).”

maize (Zea mays, ZEAMX) = assay: Postemergence crop injury (phytotoxicity), greenhouse trial (visual injury 0-100%); conditions: ZEAMX; nicosulfuron 17.5 g ai/ha
Method: as §1, §2, §5, §6
as §4, with “(L/ha). […]” for “(L/ha).”

[15] = tested on: winter rape (Brassica napus, BRSNW); assay: Postemergence herbicidal activity, greenhouse trial (visual injury 0-100%); format: in vivo; conditions: BRSNW; nicosulfuron 17.5 g ai/ha
[16] = tested on: winter wheat (Triticum aestivum, TRZAW); assay: Postemergence crop injury (phytotoxicity), greenhouse trial (visual injury 0-100%); conditions: TRZAW
Method: as §1
as §2, with “technical” for “technical or formulated”, “material” for “material (emulsifiable concentrate (EC) or soluble concentrate (SL))”
as §5
Compound 2 was combined with florasulam and applied to winter wheat (TRZAW) and the phytotoxicity of the herbicidal composition was measured. In addition, the efficacy of the herbicidal composition on poinsettia (Euphorbia heterophylla, EPHHL) and […] (Cyperus esculentus, CYPES) was evaluated.
as §4, with “technical or formulated” for “technical”, “material (emulsifiable concentrate (EC) or soluble concentrate (SL))” for “material”, “(L/ha). Spray solutions of the experimental compound mixtures were prepared by adding the stock solutions to the appropriate amount of dilution solution to form a 12 mL spray solution in two-way combinations. […]” for “(L/ha).”

[17] = tested on: pigweed (Amaranthus retroflexus, AMARE); assay: Postemergence herbicidal activity, greenhouse trial (visual injury 0-100%); format: in vivo; conditions: Amaranthus retroflexus, post-emergence, AMARE; orthosulfamuron 15 g ai/ha; read-out: % visual injury Obs
Method: as §1, §2, §3, §4

[18] = tested on: velvetleaf (Abutilon theophrasti, ABUTH); assay: as above; format: in vivo; conditions: 15 g ai/ha

`COc1cc(OC)nc(Oc2cccc(Oc3nc(OC)cc(OC)n3)c2C(=O)[O-])n1.[Na+]` [Bispyribac-sodium] was tested, and the “% visual injury Obs” value ([1]; 10 g ai/ha) was 95%, the “% visual injury Obs” value ([2]; 10 g ai/ha) was 10% and the “% visual injury Obs” value ([3]; 10 g ai/ha) was 80%.

Compound `COc1nc(C)nc(NC(=O)NS(=O)(=O)c2ccccc2Cl)n1` [Chlorsulfuron, chlorsulfuron] has a pest or weed control ([4]; Cyperus, post-emergence, chlorsulfuron 2.2 g ai/ha, read-out: % visual injury Obs) of 0%, a pest or weed control ([5]; Bassia scoparia, post-emergence, KCHSC, chlorsulfuron 2.2 g ai/ha, read-out: % visual injury Obs) of 50% and a pest or weed control ([1]; Cirsium arvense, post-emergence, CIRAR, chlorsulfuron 2.2 g ai/ha, read-out: % visual injury Obs) of 90%. It also gave a pest or weed control ([6]; Echinochloa crus-galli, post-emergence, ECHCG, chlorsulfuron 2.2 g ai/ha, read-out: % visual injury Obs) of 0%, a pest or weed control [7] of 90% and a pest or weed control ([3]; Viola tricolor, post-emergence, VIOTR, chlorsulfuron 2.2 g ai/ha, read-out: % visual injury Obs) of 60%. For the same compound, the “% visual injury Obs” value [8] was 93%.

For `Cc1cnc(C2=NC(C)(C(C)C)C(=O)N2)c(C(=O)O)c1` (centres unmarked) [Imazapic, imazapic], the pest or weed control at 35 g/ha ([6]; Echinochloa crus-galli, post-emergence, 35 g ai/ha, read-out: % visual injury Obs) was 93%, the pest or weed control at 35 g/ha ([9]; Ipomoea hederacea, post-emergence, 35 g ai/ha, read-out: % visual injury Obs) was 75% and the “% visual injury Obs” value [10] was 95%. The pest or weed control at 35 g/ha ([3]; Viola tricolor, post-emergence, 35 g ai/ha, read-out: % visual injury Obs) was 10% and the “% visual injury Obs” value ([11]; 35 g ai/ha) was 90%.

For `CC(C)C1(C)N=C(c2ncccc2C(=O)O)NC1=O` (centres unmarked) [Imazapyr, imazapyr], the “% visual injury Obs” value [12] was 97%, the pest or weed control at 280 g/ha ([9]; Ipomoea hederacea, post-emergence, 280 g ai/ha, read-out: % visual injury Obs) was 85% and the pest or weed control at 280 g/ha ([3]; Viola tricolor, post-emergence, 280 g ai/ha, read-out: % visual injury Obs) was 80%. The “% visual injury Obs” value ([13]; 280 g ai/ha) was 95%.

Compound `COc1cc(OC)nc(NC(=O)NS(=O)(=O)c2ncccc2C(=O)N(C)C)n1` [Nicosulfuron, nicosulfuron] has a pest or weed control at 17.5 g/ha ([5]; Bassia scoparia, post-emergence, KCHSC, nicosulfuron 17.5 g ai/ha, read-out: % visual injury Obs) of 5%, a pest or weed control at 17.5 g/ha ([14]; Stellaria media, post-emergence, STEME, nicosulfuron 17.5 g ai/ha, read-out: % visual injury Obs) of 30% and a pest or weed control at 17.5 g/ha ([9]; Ipomoea hederacea, post-emergence, IPOHE, nicosulfuron 17.5 g ai/ha, read-out: % visual injury Obs) of 30%. For the same compound, the “% visual injury Obs” value (maize (Zea mays, ZEAMX)) was 0%, the pest or weed control at 17.5 g/ha ([3]; Viola tricolor, post-emergence, VIOTR, nicosulfuron 17.5 g ai/ha, read-out: % visual injury Obs) was 40% and the “% visual injury Obs” value [15] was 85%. For the same compound, the “% visual injury Obs” value ([11]; SETFA, nicosulfuron 17.5 g ai/ha) was 80%.

With `COc1cc(OC)nc(NC(=O)NS(=O)(=O)Nc2ccccc2C(=O)N(C)C)n1` [Orthosulfamuron, orthosulfamuron] the “% visual injury Obs” value ([16]; orthosulfamuron 15 g ai/ha) was 0%, the pest or weed control at 15 g/ha ([5]; Bassia scoparia, post-emergence, KCHSC, orthosulfamuron 15 g ai/ha, read-out: % visual injury Obs) was 0% and the pest or weed control at 15 g/ha [17] was 10%. The pest or weed control at 15 g/ha ([9]; Ipomoea hederacea, post-emergence, IPOHE, orthosulfamuron 15 g ai/ha, read-out: % visual injury Obs) was 90% and the “% visual injury Obs” value ([2]; ORYSA, orthosulfamuron 15 g ai/ha) was 0%.

In the case of metsulfuron, the “% visual injury Obs” value ([4]; metsulfuron 1.5 g ai/ha) is reported as 50%, the “% visual injury Obs” value ([16]; metsulfuron 1.5 g ai/ha) is reported as 0% and the “% visual injury Obs” value ([5]; KCHSC, metsulfuron 1.5 g ai/ha) is reported as 70%. For the same compound, the “% visual injury Obs” value ([1]; CIRAR, metsulfuron 1.5 g ai/ha) was 90%, the “% visual injury Obs” value ([6]; ECHCG, metsulfuron 1.5 g ai/ha) was 0% and the “% visual injury Obs” value ([2]; ORYSA, metsulfuron 1.5 g ai/ha) was 20%.

With pyribenzoxim the “% visual injury Obs” value ([5]; 15 g ai/ha) was 0%, the “% visual injury Obs” value ([14]; 15 g ai/ha) was 40% and the “% visual injury Obs” value ([9]; 15 g ai/ha) was 70%. The “% visual injury Obs” value ([2]; 15 g ai/ha) was 0%, the “% visual injury Obs” value ([13]; 15 g ai/ha) was 0% and the “% visual injury Obs” value ([11]; 15 g ai/ha) was 70%. For the same compound, the “% visual injury Obs” value [18] was 10%.
